According to PubChem BioAssay (NCI):
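Dose response: 5 concentrations. Exposure: 48 h. Format: 96-well plates. Endpoint: linear interpolation; highest concentration if not reached. The concentration for 50% growth inhibition is given as GI50. TGI: concentration producing complete growth inhibition.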

What was measured:
Test in all cases: NCI tumour cell line growth inhibition, 48 h
[1] = tested on: IGROV1 ovarian
[2] = tested on: NCI/ADR-RES ovarian
[3] = tested on: OVCAR-8 ovarian
[4] = tested on: T-47D breast
[5] = tested on: A549 NSCLC
[6] = tested on: UO-31 renal
[7] = tested on: SW-620 colon
[8] = tested on: HOP-62 NSCLC
[9] = tested on: UACC-257 melanoma
[10] = tested on: MALME-3M melanoma
[11] = tested on: HS 578T breast
[12] = tested on: HOP-92 NSCLC
[13] = tested on: KM12 colon
[14] = tested on: SF-539 CNS
[15] = tested on: CCRF-CEM leukemia
[16] = tested on: HL-60(TB) leukemia
[17] = tested on: SK-MEL-28 melanoma
[18] = tested on: TK-10 renal
[19] = tested on: NCI-H460 lung
[20] = tested on: NCI-H522 lung
[21] = tested on: HT29 colon
[22] = tested on: MOLT-4 leukemia
[23] = tested on: SN12C renal
[24] = tested on: SK-OV-3 ovarian
[25] = tested on: ACHN renal
[26] = tested on: COLO 205 colon
[27] = tested on: BT-549 breast
[28] = tested on: SF-268 CNS
[29] = tested on: MDA-MB-231 breast
[30] = tested on: PC-3 prostate
[31] = tested on: LOX IMVI melanoma
[32] = tested on: K-562 leukemia
[33] = tested on: CAKI-1 renal
[34] = tested on: OVCAR-3 ovarian
[35] = tested on: NCI-H226 lung
[36] = tested on: MDA-MB-435
[37] = tested on: DU-145 prostate
[38] = tested on: SF-295 CNS
[39] = tested on: 786-0 renal
[40] = tested on: NCI-H23 lung
[41] = tested on: U251 CNS
[42] = tested on: A498 renal
[43] = tested on: MCF7 breast
[44] = tested on: OVCAR-4 ovarian
[45] = tested on: SR leukemia
[46] = tested on: HCT-116 colon
[47] = tested on: SNB-19 CNS
[48] = tested on: M14 melanoma
[49] = tested on: SK-MEL-5 melanoma
[50] = tested on: EKVX NSCLC
[51] = tested on: UACC-62 melanoma
[52] = tested on: OVCAR-5 ovarian
[53] = tested on: HCT-15 colon
[54] = tested on: SNB-75 CNS
[55] = tested on: HCC-2998 colon
[56] = tested on: SK-MEL-2 melanoma
[57] = tested on: RPMI-8226 leukemia

OCC#Cc1ccccc1C#CCCCCCC#Cc1ccccc1C#CCO
GI50 [1]: 18.7 µM
TGI [1]: 43.3 µM
GI50 [2]: 18.8 µM
TGI [2]: 36.7 µM
GI50 [3]: 17.1 µM
TGI [3]: 42.1 µM
GI50 [4]: 16.9 µM
TGI [4]: 32.3 µM
GI50 [5]: 19.2 µM
TGI [5]: 45.3 µM
GI50 [6]: 17.1 µM
TGI [6]: 33.8 µM
GI50 [7]: 21.9 µM
TGI [7]: 43.3 µM
GI50 [8]: 16.2 µM
TGI [8]: 31.4 µM
GI50 [9]: 15.7 µM
TGI [9]: 31.4 µM
GI50 [10]: 20.7 µM
TGI [10]: 52.6 µM
GI50 [11]: 21.7 µM
TGI [11]: 43.7 µM
GI50 [12]: 17.6 µM
TGI [12]: 33.3 µM
GI50 [13]: 18.8 µM
TGI [13]: 49.4 µM
GI50 [14]: 20 µM
TGI [14]: 36.3 µM
GI50 [15]: 22.9 µM
TGI [15]: 49.6 µM
GI50 [16]: 18.8 µM
TGI [16]: 41.8 µM
GI50 [17]: 29 µM
TGI [17]: > 100 µM
GI50 [18]: 27.1 µM
TGI [18]: 76.8 µM
GI50 [19]: 17.4 µM
TGI [19]: 34 µM
GI50 [20]: 14.6 µM
TGI [20]: 29.6 µM
GI50 [21]: 21.6 µM
TGI [21]: > 100 µM
GI50 [22]: 15.6 µM
TGI [22]: 37.3 µM
GI50 [23]: 19.2 µM
TGI [23]: 33.6 µM
GI50 [24]: 31 µM
TGI [24]: > 100 µM
GI50 [25]: 27.1 µM
TGI [25]: 54 µM
GI50 [26]: 22.8 µM
TGI [26]: 72.2 µM
GI50 [27]: 19.8 µM
TGI [27]: 39.8 µM
GI50 [28]: 18.8 µM
TGI [28]: 38.7 µM
GI50 [29]: 17.2 µM
TGI [29]: 32.6 µM
GI50 [30]: 18.1 µM
TGI [30]: 38.8 µM
GI50 [31]: 19.3 µM
TGI [31]: 34.8 µM
GI50 [32]: 22.4 µM
TGI [32]: 57.7 µM
GI50 [33]: 19.3 µM
TGI [33]: 43.8 µM
GI50 [34]: 16 µM
TGI [34]: 32.9 µM
GI50 [35]: 21.8 µM
TGI [35]: 38.9 µM
GI50 [36]: 18.8 µM
TGI [36]: 36.1 µM
GI50 [37]: 20.2 µM
TGI [37]: 41.7 µM
GI50 [38]: 16.9 µM
TGI [38]: 33.8 µM
GI50 [39]: 16.8 µM
TGI [39]: 32.3 µM
GI50 [40]: 18.4 µM
TGI [40]: 33.6 µM
GI50 [41]: 20.9 µM
TGI [41]: 36 µM
GI50 [42]: 24.1 µM
TGI [42]: 44.8 µM
GI50 [43]: 18.5 µM
TGI [43]: 40.2 µM
GI50 [44]: 41 µM
TGI [44]: > 100 µM
GI50 [45]: 18.1 µM
TGI [45]: 40.7 µM
GI50 [46]: 12.7 µM
TGI [46]: 25.2 µM
GI50 [47]: 34.8 µM
TGI [47]: > 100 µM
GI50 [48]: 15.4 µM
TGI [48]: 29.2 µM
GI50 [49]: 18.9 µM
TGI [49]: 33.1 µM
GI50 [50]: 21.3 µM
TGI [50]: 42.4 µM
GI50 [51]: 17.9 µM
TGI [51]: 32.3 µM
GI50 [52]: 12.8 µM
TGI [52]: 28.6 µM
GI50 [53]: 15.9 µM
TGI [53]: 30.7 µM

COc1cc(/C=C/C(=O)C2(C(=O)/C=C/c3cc(OC)c(OC)c(OC)c3)CCCCC2)cc(OC)c1OC
TGI [1]: > 100 µM
TGI [2]: > 100 µM
TGI [3]: 65.2 µM
TGI [4]: > 100 µM
TGI [5]: > 100 µM
TGI [6]: > 100 µM
TGI [7]: > 100 µM
TGI [8]: > 100 µM
TGI [9]: > 100 µM
TGI [10]: > 100 µM
TGI [11]: 89.8 µM
TGI [12]: 68 µM
TGI [13]: 75.9 µM
TGI [54]: > 100 µM
TGI [14]: 47.8 µM
TGI [15]: > 100 µM
TGI [16]: > 100 µM
TGI [17]: > 100 µM
TGI [55]: > 100 µM
TGI [18]: > 100 µM
TGI [19]: > 100 µM
TGI [20]: 96.9 µM
TGI [21]: > 100 µM
TGI [23]: > 100 µM
TGI [56]: > 100 µM
TGI [57]: > 100 µM
TGI [24]: > 100 µM
TGI [25]: > 100 µM
TGI [26]: > 100 µM
TGI [27]: 91.9 µM
TGI [28]: > 100 µM
TGI [29]: > 100 µM
TGI [30]: > 100 µM
TGI [31]: > 100 µM
TGI [32]: > 100 µM
TGI [33]: > 100 µM
TGI [34]: 58.4 µM
TGI [35]: > 100 µM
TGI [36]: 42.5 µM
TGI [37]: > 100 µM
TGI [38]: 89 µM
TGI [39]: > 100 µM
TGI [40]: > 100 µM
TGI [41]: > 100 µM
TGI [42]: > 100 µM
TGI [43]: > 100 µM
TGI [44]: > 100 µM
TGI [45]: > 100 µM
TGI [46]: > 100 µM
TGI [47]: > 100 µM
TGI [48]: 81.7 µM
TGI [49]: > 100 µM
TGI [50]: > 100 µM
TGI [51]: 53.8 µM
TGI [52]: > 100 µM
TGI [53]: > 100 µM
